These results are taken from patent US6479487B1, “6, 9-disubstituted 2-[trans-(4-aminocyclohexyl)amino] purines” (Aventis Pharmaceuticals Inc., priority 1998, dated 2002).

pIC50: −log10 of the molar value. Values joined by “and” are separate entries in the source; they are usually repeats but may differ in a detail not shown here. Equal values may be shown once. Where a name gives a salt, the structure may show the parent alone. Read-outs that look alike come from different tables or passages of the source.

In one assay the target is T1, cdk4/cyclin D1 (Homo sapiens, UniProt P11802).
T1 construct: made in house; host or cells: Sf9 insect cells (Bac-to-Bac baculovirus, pFastBac)
T1 sequence (P11802 whole entry): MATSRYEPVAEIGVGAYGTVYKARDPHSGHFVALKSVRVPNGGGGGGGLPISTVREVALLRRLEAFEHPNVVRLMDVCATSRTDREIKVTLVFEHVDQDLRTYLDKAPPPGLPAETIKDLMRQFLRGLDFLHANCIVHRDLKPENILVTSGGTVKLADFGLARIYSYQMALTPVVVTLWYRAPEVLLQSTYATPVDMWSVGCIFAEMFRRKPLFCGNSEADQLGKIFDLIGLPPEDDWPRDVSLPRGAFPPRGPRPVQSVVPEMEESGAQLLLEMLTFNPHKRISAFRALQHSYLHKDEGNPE
T1 sequence (P24385 whole entry partner): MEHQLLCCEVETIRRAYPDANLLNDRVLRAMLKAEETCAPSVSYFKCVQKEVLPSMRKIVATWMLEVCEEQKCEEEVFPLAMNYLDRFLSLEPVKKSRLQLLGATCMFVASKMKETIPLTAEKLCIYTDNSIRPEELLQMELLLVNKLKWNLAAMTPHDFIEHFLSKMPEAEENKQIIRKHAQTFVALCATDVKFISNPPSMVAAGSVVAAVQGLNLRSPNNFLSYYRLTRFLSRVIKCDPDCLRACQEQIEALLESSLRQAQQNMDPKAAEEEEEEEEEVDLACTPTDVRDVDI
The assay can be described thus: Cyclin-dependent Kinase 4 Assay (cdk4/cyclin D1, GST-Rb substrate). Conditions: cdk4/cyclin D1 insect cell lysate, 10 μM ATP, 30 min at 37° C., several values = separate determinations, read-out: CDK4 Inhibition IC50. The assay is classed as biochemical. As to the method:
The IC50 values for cdk4 inhibition were by the following method:
The transformed bacteria were grown overnight to saturation, then diluted in YT broth and incubated at 37° C. for 2 h. The protein was induced by incubation with 0.1 mM isopropylthioglycoside for 3 h. Following sedimentation by centrifugation, the cells were lysed by sonication in STE buffer ([…] NaCl, 10 mM Tris, pH 8.0, 1 mM EDTA) containing 10% sarkosyl. Particulate matter was removed by centrifugation and the lysate was incubated with glutathione-Sepharose at 4° C. The beads were washed with kinase buffer and then quantitation of Coomassie blue-stained proteins separated by SDS-PAGE was performed using a protein standard of known concentration.
The cDNA for human cyclin D1 was cloned by RT PCR using […] from MCF-7 cells. […] Bacmid DNA was used to transfect Sf9 insect cells to produce recombinant virus. Following plaque purification of the virus, the viral preparations were amplified until high titer stocks were acheived.
Lysates were prepared by lysis of Sf9 cells coinfected with cdk4 and cyclin D1 in 50 mM HEPES, pH 7.5, 10 mM MgCl2, 1 mM DTT, 0.1 mM phenylmethylsulfonyl fluoride, 5 μg/ml aprotinin, and 5 μg/ml leupeptin using a PARR bomb under 500 p.s.i nitrogen pressure for 5 min at 4° C. Insoluble material was sedimented at 10,000×g for 20 min at 4° C. Glycerol was added to the supernatant to 10% and stored at −80° C. in aliquots.
Pre-wet Millipore Multiscreen 96-well filter plates (0.65 μm Durapore filters) with 200 μl kinase buffer (50 mM HEPES, pH 7.5, 10 mM MgCl2, 1 mM EGTA). GST-Rb (0.5 μg) bound to glutathione-Sepharose beads is added in 50 μl per well and the solution removed by application of vacuum. […] Add 0.1 μg cdk4/cyclin D1 (insect cell lysate) to initiate assay. Incubate 30 min at 37° C. Terminate reaction by filtration on Millipore Vacuum Manifold. Wash four times with TNEN (20 mM Tris, pH 8.0, 100 mM Na Cl, 1 mM EDTA, 0.5% nonidet P-40). After drying the plates at room temperature, the filter plates were placed in adapter plates (Packard) and 40 μl of Microscint-O® (Packard) was added to each well. Top Seal A film was used to cover the plates before counting in a Top Count Scintillation Counter.

The subject of the next assay is MDA-MB-231. The experiment in a line: In vitro tumor cell proliferation, MDA-MB-231. Conditions: sulforhodamine B or CyQUANT assay, many values given with an undefined *, read-out: In vitro Tumor Cell Proliferation (IC50, μM) Breast MDA-MB-231. The assay is classed as cell-based, human. The method, then:
(§1) The proliferation of tumor cells was measured using a sulforhodamine B assay as described in Skehan, P., et al., J. Natl. Cancer Inst. […] Tumor cells were harvested with trypsin-EDTA, cells that excluded trypan blue were counted, added to 96-well plates and incubated overnight at 37° C. Drug was added to the wells following dilution in culture medium. Three days later, the medium was removed and replenished with medium containing fresh drug and incubated an additional 4 days. The cells were then fixed with 0.1 ml 10% trichloroacetic acid for 60 min at 4° C. The plates were rinsed five times with tap water, air-dried and stained for 30 min with 0.4% sulforhodamine B in 1% acetic acid and air-dried.
(§2) Alternatively, the CyQUANT cell proliferation assay was used to quantitate cell proliferation.
(§3) Alternatively, the CyQUANT cell proliferation assay was used to quantify tumor cell proliferation. Tumor cells were harvested with trypsin-EDTA, cells that excluded trypan blue were counted, added to 96-well plates and incubated overnight at 37° C. Drug was added to the wells following dilution in culture medium. Three days later the medium was removed and the plates frozen at −80° C. for at least 30 minutes.
MDA-MB-23 1 is a human breast adenocarcinoma, hormone-independent (HTB 26);

For another assay, the system named is MDA-MB-435. The assay can be described thus: In vitro tumor cell proliferation, MDA-MB-435. The assay is classed as cell-based. Conditions: values given with an undefined *, read-out: In vitro Tumor Cell Proliferation (IC50, μM) Breast MDA-MB-435. As to the method:
as §1, §2, §3

Another assay concerns HT-29. The experiment in a line: In vitro tumor cell proliferation, HT-29. Conditions: many values given with an undefined *, read-out: In vitro Tumor Cell Proliferation (IC50, μM) Colon HT-29. It counts as cell-based, human. The method, then: as §1, §2, §3
HT-29 is a human colon adenocarcinoma, moderately well-differentiated grade II (HTB 38);

A further assay relates to Colo-205. The experiment in a line: In vitro tumor cell proliferation, Colo-205. The assay is classed as cell-based. Conditions: values given with an undefined *, read-out: In vitro Tumor Cell Proliferation (IC50, μM) Colon Colo-205. The method, then:
as §1, §2, §3

A further assay has as its system A549. The experiment in a line: In vitro tumor cell proliferation, A549. The assay is classed as cell-based, human. Conditions: many values given with an undefined *, read-out: In vitro Tumor Cell Proliferation (IC50, μM) Lung A549. As to the method:
as §1, §2, §3

Another assay concerns DMS-114. The assay can be described thus: In vitro tumor cell proliferation, DMS-114. The assay is classed as cell-based, human. The following applies: many values given with an undefined *, read-out: In vitro Tumor Cell Proliferation (IC50, μM) Lung DMS-114. The method, then:
DMS-1 14: human small cell lung carcinoma;
as §1, §2, §3

For a further assay, the system named is PC-3. The assay can be described thus: In vitro tumor cell proliferation, PC-3. The following applies: many values given with an undefined *, read-out: In vitro Tumor Cell Proliferation (IC50, μM) Prostate PC-3. The assay is classed as cell-based, human. As to the method:
as §1, §2, §3

A further assay has as its system DU145. The assay can be described thus: In vitro tumor cell proliferation, DU145. The assay is classed as cell-based, human. Conditions: many values given with an undefined *, read-out: In vitro Tumor Cell Proliferation (IC50, μM) Prostate DU145. As to the method: as §1, §2, §3
The next assay addresses T2, cdk2/cyclin E (Homo sapiens, UniProt P24941).
T2 construct: made in house; host or cells: insect cells (baculovirus co-infection)
The assay can be described thus: Cyclin-Dependent Kinase 2 Assay (cdk2/cyclin E, GST-Rb substrate). It counts as biochemical. Conditions: recombinant cdk2/cyclin E, 10 μM ATP, 30 min at 30° C., several values in a cell = separate determinations, read-out: CDK-2 Inhibition IC50. The method, then:
Substrate: GST-Rb as described above for cdk4/cyclin D1
Assay conditions for cdk2/cyclin E were identical to those for cdk4/cyclin D1 including the substrate. The concentration of recombinant cdk2/cyclin E in the assay was 0.1 μg per 100 μl assay. Incubation was for 30 min at 30° C.

Setting [1] is: Homo sapiens, MDA-MB-231, MDA-MB-231.

On to “2-[Trans-(4-aminocyclohexyl)amino]-6-[4-[1-(2,5-difluorobenzyl)]piperidinylamino-9-cyclopentylpurine trihydrochloride [Example 147-f]”, for which, at cdk4/cyclin D1 (trihydrochloride), the pIC50 is 5.96 and 5.68. In addition, the IC50 in the assay with MDA-MB-231 (MDA-MB-231, trihydrochloride) was 0.41 µM and 0.38 µM; in the assay with MDA-MB-435 (MDA-MB-435, trihydrochloride), 0.5 µM and 0.49 µM; with HT-29 (HT-29, trihydrochloride), 0.4 µM and 0.34 µM; in the assay with Colo-205 (Colo-205, trihydrochloride) it was 0.31 µM and 0.25 µM; in the assay on A549 (A549, trihydrochloride) it was 0.3 µM; in the assay with DMS-114 (DMS-114, trihydrochloride), 0.67 µM and 0.36 µM. Besides, the IC50 with PC-3 (PC-3, trihydrochloride) was 0.36 µM and 0.45 µM; in the assay with DU145 (DU145, trihydrochloride), 0.31 µM and 0.29 µM.
Take `N[C@H]1CC[C@H](Nc2nc(NNc3c(Cl)cccc3Cl)c3ncn(C4CCCC4)c3n2)CC1` [Example 20, 2-[Trans-(4-aminocyclohexyl)amino]-6-[2,6-dichlorophenylhydrazino]-9-cyclopentylpurine dihydrochloride]: the pIC50 at cdk2/cyclin E was 6.30. Moreover, the IC50 came out at 4.8 µM with MDA-MB-231 (setting [1]); 11 µM with MDA-MB-435 (Homo sapiens, MDA-MB-435, MDA-MB-435); 7.6 µM in the assay on HT-29 (Homo sapiens, HT-29, HT-29); 4.8 µM in the assay on A549 (A549, dihydrochloride); 5.6 µM with A549 (Homo sapiens, A549, A549); 7.5 µM in the assay with DMS-114 (Homo sapiens, DMS-114, DMS-114). Further, the IC50 worked out at 7.9 µM in the assay on PC-3 (Homo sapiens, PC-3, PC-3) and 6.5 µM in the assay with DU145 (Homo sapiens, DU-145, DU145).
As to `COc1ccc(CN2CCC(Nc3nc(N[C@H]4CC[C@H](N)CC4)nc4c3ncn4C3CCCC3)CC2)cc1` [Example 39, 2-[Trans-(4-aminocyclohexyl)amino]-6-[4-(1-(4-methoxybenzyl))piperidinylamino]-9-cyclopentylpurine], the IC50 with MDA-MB-231 (MDA-MB-231) is 0.18 µM; in the assay with MDA-MB-435 (MDA-MB-435), 0.23 µM and 0.35 µM; in the assay with HT-29 (HT-29) it was 0.32 µM and 0.22 µM; in the assay with Colo-205 (Colo-205), 0.28 µM and 0.17 µM; in the assay on A549 (A549), 0.17 µM; with DMS-114 (DMS-114), 0.32 µM and 0.22 µM. The IC50 is 0.28 µM and 0.36 µM in the assay with PC-3 (PC-3); 0.28 µM and 0.27 µM in the assay on DU145 (DU145).
Take `COc1cccc(CN2CCC(Nc3nc(N[C@H]4CC[C@H](N)CC4)nc4c3ncn4C3CCCC3)CC2)c1` [Example 41, 2-[Trans-(4-aminocyclohexyl)amino]-6-[4-(1-(3-methoxybenzyl))piperidinylamino]-9-cyclopentylpurine]: the pIC50 on cdk4/cyclin D1 is 6.12 and 5.85. For the same molecule, the IC50 with MDA-MB-231 (MDA-MB-231) was 0.29 µM and 0.32 µM; with MDA-MB-435 (MDA-MB-435), 0.35 µM and 0.36 µM; with HT-29 (HT-29) it was 0.32 µM; in the assay on Colo-205 (Colo-205), 0.25 µM and 0.21 µM; in the assay on A549 (A549), 0.19 µM; in the assay with DMS-114 (DMS-114), 0.38 µM and 0.29 µM. Besides, the IC50 is 0.27 µM and 0.42 µM in the assay with PC-3 (PC-3); 0.29 µM and 0.23 µM in the assay with DU145 (DU145).
In the case of `COc1cc(CNc2nc(NC3CCC(N)CC3)nc3c2ncn3C2CCCC2)cc(OC)c1OC` (stereo not drawn) [Example 147-ae], the pIC50 at cdk2/cyclin E was 6.85. Also, the IC50 came out at 6.5 µM with MDA-MB-231 (setting [1]); 6.6 µM with MDA-MB-231 (MDA-MB-231); 11 µM in the assay on MDA-MB-435 (MDA-MB-435); 10 µM in the assay with HT-29 (Homo sapiens, HT-29, HT-29); 8.6 µM with Colo-205 (Colo-205); 11 µM in the assay with Colo-205 (Homo sapiens, COLO 205, Colo-205). The IC50 with A549 (Homo sapiens, A549, A549) is 11 µM; with DMS-114 (Homo sapiens, DMS-114, DMS-114) it was 8.7 µM; in the assay on DU145 (DU145), 6.7 µM; in the assay with DU145 (Homo sapiens, DU-145, DU145) it was 12 µM.
As to `Cc1cccc(CN2CCC(Nc3nc(N[C@H]4CC[C@H](N)CC4)nc4c3ncn4C3CCCC3)CC2)c1` [Example 147-i, 2-[Trans-(4-aminocyclohexyl)amino]-6-[4-[1-(3-methylbenzyl)]piperidinylamino]-9-cyclopentylpurine trihydrochloride], the IC50 in the assay with MDA-MB-231 (MDA-MB-231, trihydrochloride) is 0.3 µM and 0.34 µM; with MDA-MB-435 (MDA-MB-435, trihydrochloride) it was 0.3 µM and 0.45 µM; in the assay with HT-29 (HT-29, trihydrochloride), 0.33 µM; with Colo-205 (Colo-205, trihydrochloride), 0.24 µM and 0.27 µM; in the assay with A549 (A549, trihydrochloride), 0.17 µM and 0.18 µM; in the assay on DMS-114 (DMS-114, trihydrochloride) it was 0.39 µM and 0.26 µM. In addition, the IC50 in the assay on PC-3 (PC-3, trihydrochloride) was 0.23 µM and 0.41 µM; with DU145 (DU145, trihydrochloride), 0.23 µM.
Regarding `COc1ccccc1CN1CCC(Nc2nc(N[C@H]3CC[C@H](N)CC3)nc3c2ncn3C2CCCC2)CC1` [Example 147-q, 2-[Trans-(4-aminocyclohexyl)amino]-6-[4-1-(2-methoxybenzyl)]piperidinylamino-9-cyclopentylpurine trihydrochloride], on cdk4/cyclin D1 (trihydrochloride), the pIC50 is 6.16 and 5.89. In addition, the IC50 in the assay with MDA-MB-231 (MDA-MB-231, trihydrochloride) was 0.19 µM and 0.25 µM; in the assay with MDA-MB-435 (MDA-MB-435, trihydrochloride) it was 0.36 µM and 0.33 µM; in the assay with HT-29 (HT-29, trihydrochloride), 0.32 µM and 0.38 µM; with Colo-205 (Colo-205, trihydrochloride), 0.17 µM and 0.19 µM; in the assay on A549 (A549, trihydrochloride), 0.18 µM and 0.19 µM; in the assay with DMS-114 (DMS-114, trihydrochloride) it was 0.4 µM and 0.21 µM. In addition, the IC50 in the assay with PC-3 (PC-3, trihydrochloride) is 0.33 µM and 0.4 µM; with DU145 (DU145, trihydrochloride) it was 0.29 µM and 0.32 µM.
